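GI50 is the concentration that inhibits growth by half. TGI: concentration producing complete growth inhibition.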
How the values were obtained:
Test in all cases: growth of human tumour cells (NCI), 384-well format
UO-31 renal = tested on: UO-31 renal
HL-60(TB) leukemia = tested on: HL-60(TB) leukemia
SR leukemia = tested on: SR leukemia
HCT-15 colon = tested on: HCT-15 colon
SN12C renal = tested on: SN12C renal
OVCAR-3 ovarian = tested on: OVCAR-3 ovarian
NCI/ADR-RES ovarian = tested on: NCI/ADR-RES ovarian
RXF 393 renal = tested on: RXF 393 renal
MCF7 breast = tested on: MCF7 breast
ACHN renal = tested on: ACHN renal
NCI-H226 lung = tested on: NCI-H226 lung
MOLT-4 leukemia = tested on: MOLT-4 leukemia
BT-549 breast = tested on: BT-549 breast
OVCAR-8 ovarian = tested on: OVCAR-8 ovarian
CCRF-CEM leukemia = tested on: CCRF-CEM leukemia
T-47D breast = tested on: T-47D breast
SNB-75 CNS = tested on: SNB-75 CNS
MDA-MB-468 breast = tested on: MDA-MB-468 breast
HOP-92 NSCLC = tested on: HOP-92 NSCLC
IGROV1 ovarian = tested on: IGROV1 ovarian
K-562 leukemia = tested on: K-562 leukemia
CAKI-1 renal = tested on: CAKI-1 renal
KM12 colon = tested on: KM12 colon
SK-MEL-2 melanoma = tested on: SK-MEL-2 melanoma
NCI-H460 NSCLC = tested on: NCI-H460 NSCLC
SNB-19 CNS = tested on: SNB-19 CNS
U251 glioblastoma = tested on: U251 glioblastoma
A498 renal = tested on: A498 renal
SF-268 CNS = tested on: SF-268 CNS
UACC-62 melanoma = tested on: UACC-62 melanoma
LOX IMVI melanoma = tested on: LOX IMVI melanoma
786-0 renal = tested on: 786-0 renal
COLO 205 colon = tested on: COLO 205 colon
MDA-MB-435 melanoma = tested on: MDA-MB-435 melanoma
EKVX NSCLC = tested on: EKVX NSCLC
MALME-3M melanoma = tested on: MALME-3M melanoma
RPMI-8226 leukemia = tested on: RPMI-8226 leukemia
SK-MEL-5 melanoma = tested on: SK-MEL-5 melanoma
DU-145 prostate = tested on: DU-145 prostate
NCI-H23 lung = tested on: NCI-H23 lung
NCI-H322M lung = tested on: NCI-H322M lung
OVCAR-5 ovarian = tested on: OVCAR-5 ovarian
SK-OV-3 ovarian = tested on: SK-OV-3 ovarian
HT29 colon = tested on: HT29 colon
PC-3 prostate = tested on: PC-3 prostate
NCI-H522 lung = tested on: NCI-H522 lung
SF-539 CNS = tested on: SF-539 CNS
M14 melanoma = tested on: M14 melanoma
MDA-MB-231 breast = tested on: MDA-MB-231 breast
SK-MEL-28 melanoma = tested on: SK-MEL-28 melanoma
HS 578T breast = tested on: HS 578T breast
HCC-2998 colon = tested on: HCC-2998 colon
SF-295 CNS = tested on: SF-295 CNS
HOP-62 NSCLC = tested on: HOP-62 NSCLC
OVCAR-4 ovarian = tested on: OVCAR-4 ovarian
SW-620 colon = tested on: SW-620 colon
UACC-257 melanoma = tested on: UACC-257 melanoma

SMILES: CC[C@@H](C(=O)[C@@H](C)[C@@H](O)[C@H](C)[C@@H]1O[C@@H]([C@@H](CC)C(=O)O)CC[C@@H]1C)[C@H]1O[C@]2(C=C[C@@H](O)[C@]3(CC[C@@](C)([C@H]4CC[C@](O)(CC)[C@H](C)O4)O3)O2)[C@H](C)C[C@@H]1C
- GI50 (UO-31 renal): 157 nM
- TGI (UO-31 renal): 759 nM
- GI50 (HL-60(TB) leukemia): < 10 nM
- TGI (HL-60(TB) leukemia): < 10 nM
- GI50 (SR leukemia): < 10 nM
- TGI (SR leukemia): < 10 nM
- GI50 (HCT-15 colon): 299 nM
- TGI (HCT-15 colon): 1190 nM
- GI50 (SN12C renal): < 10 nM
- TGI (SN12C renal): 1760 nM
- GI50 (OVCAR-3 ovarian): < 10 nM
- TGI (OVCAR-3 ovarian): < 10 nM
- GI50 (NCI/ADR-RES ovarian): 167 nM
- TGI (NCI/ADR-RES ovarian): 2110 nM
- GI50 (RXF 393 renal): < 10 nM
- TGI (RXF 393 renal): < 10 nM
- GI50 (MCF7 breast): < 10 nM
- TGI (MCF7 breast): 278 nM
- GI50 (ACHN renal): 416 nM
- TGI (ACHN renal): 13600 nM

SMILES: COc1ccc(F)cc1-c1ccnc2[nH]c(C3=CCN(C4CCC(CC(=O)O)CC4)CC3)cc12 (centres undefined)
- GI50 (NCI-H226 lung): 116 nM
- TGI (NCI-H226 lung): 451 nM
- GI50 (MOLT-4 leukemia): 36.6 nM
- TGI (MOLT-4 leukemia): 121 nM
- GI50 (UO-31 renal): 102 nM
- TGI (UO-31 renal): 691 nM
- GI50 (BT-549 breast): 53.4 nM
- TGI (BT-549 breast): 145 nM
- GI50 (OVCAR-8 ovarian): 54.6 nM
- TGI (OVCAR-8 ovarian): 238 nM
- GI50 (CCRF-CEM leukemia): 21.8 nM
- TGI (CCRF-CEM leukemia): 57.8 nM
- GI50 (T-47D breast): 72 nM
- GI50 (SNB-75 CNS): 48.3 nM
- TGI (SNB-75 CNS): 172 nM
- GI50 (HL-60(TB) leukemia): 15.1 nM
- TGI (HL-60(TB) leukemia): 32.5 nM
- TGI (SR leukemia): < 14.1 nM
- GI50 (MDA-MB-468 breast): 34.1 nM
- TGI (MDA-MB-468 breast): 118 nM
- GI50 (HOP-92 NSCLC): 94.1 nM
- GI50 (IGROV1 ovarian): 77.1 nM
- TGI (IGROV1 ovarian): > 100000 nM
- GI50 (HCT-15 colon): 63.7 nM
- TGI (HCT-15 colon): 2320 nM
- GI50 (K-562 leukemia): 136 nM
- TGI (K-562 leukemia): 521 nM
- GI50 (CAKI-1 renal): 111 nM
- TGI (CAKI-1 renal): 465 nM
- GI50 (KM12 colon): 28.9 nM
- TGI (KM12 colon): 240 nM
- GI50 (SK-MEL-2 melanoma): 49.3 nM
- TGI (SK-MEL-2 melanoma): 176 nM
- GI50 (NCI-H460 NSCLC): 63.4 nM
- TGI (NCI-H460 NSCLC): 183 nM
- GI50 (SNB-19 CNS): 78.7 nM
- TGI (SNB-19 CNS): > 68300 nM
- GI50 (U251 glioblastoma): 142 nM
- TGI (U251 glioblastoma): 490 nM
- GI50 (A498 renal): 86.4 nM
- GI50 (SF-268 CNS): 22.3 nM
- TGI (SF-268 CNS): 84.4 nM
- GI50 (UACC-62 melanoma): < 16.4 nM
- TGI (UACC-62 melanoma): 87.5 nM
- GI50 (LOX IMVI melanoma): 33.6 nM
- TGI (LOX IMVI melanoma): 141 nM
- GI50 ([…]-0 renal): 82.4 nM
- TGI (786-0 renal): 266 nM
- GI50 (COLO 205 colon): 33.6 nM
- TGI (COLO 205 colon): 188 nM
- GI50 (MDA-MB-435 melanoma): 130 nM
- TGI (MDA-MB-435 melanoma): 411 nM
- GI50 (EKVX NSCLC): 150 nM
- TGI (EKVX NSCLC): 437 nM
- GI50 (SN12C renal): 59.7 nM
- TGI (SN12C renal): 282 nM
- GI50 (MALME-3M melanoma): 63 nM
- TGI (MALME-3M melanoma): 197 nM
- GI50 (RPMI-8226 leukemia): 42.2 nM
- TGI (RPMI-8226 leukemia): 138 nM
- GI50 (SK-MEL-5 melanoma): 48.7 nM
- TGI (SK-MEL-5 melanoma): 156 nM
- GI50 (DU-145 prostate): 115 nM
- TGI (DU-145 prostate): 1820 nM
- GI50 (NCI-H23 lung): 49.5 nM
- TGI (NCI-H23 lung): 195 nM
- GI50 (NCI-H322M lung): 113 nM
- TGI (NCI-H322M lung): 367 nM
- GI50 (OVCAR-5 ovarian): 115 nM
- TGI (OVCAR-5 ovarian): 31600 nM
- GI50 (SK-OV-3 ovarian): 398 nM
- TGI (SK-OV-3 ovarian): > 25900 nM
- GI50 (HT29 colon): 184 nM
- TGI (HT29 colon): 606 nM
- GI50 (PC-3 prostate): 124 nM
- TGI (PC-3 prostate): 520 nM
- GI50 (NCI-H522 lung): 131 nM
- TGI (NCI-H522 lung): 306 nM
- GI50 (SF-539 CNS): 104 nM
- TGI (SF-539 CNS): 277 nM
- GI50 (M14 melanoma): 87.2 nM
- TGI (M14 melanoma): 304 nM
- GI50 (MDA-MB-231 breast): 70.1 nM
- TGI (MDA-MB-231 breast): 362 nM
- GI50 (OVCAR-3 ovarian): 33.4 nM
- TGI (OVCAR-3 ovarian): 183 nM
- GI50 (SK-MEL-28 melanoma): 39.1 nM
- TGI (SK-MEL-28 melanoma): 202 nM
- GI50 (NCI/ADR-RES ovarian): 1220 nM
- TGI (NCI/ADR-RES ovarian): 4590 nM
- GI50 (HS 578T breast): 19 nM
- TGI (HS 578T breast): 55.7 nM
- GI50 (RXF 393 renal): 18.3 nM
- TGI (RXF 393 renal): 53.7 nM
- GI50 (HCC-2998 colon): 110 nM
- TGI (HCC-2998 colon): 432 nM
- GI50 (SF-295 CNS): 171 nM
- TGI (SF-295 CNS): 456 nM
- GI50 (HOP-62 NSCLC): 52.4 nM
- TGI (HOP-62 NSCLC): 194 nM
- GI50 (OVCAR-4 ovarian): 158 nM
- TGI (OVCAR-4 ovarian): 492 nM
- GI50 (SW-620 colon): 62.3 nM
- TGI (SW-620 colon): 588 nM
- GI50 (UACC-257 melanoma): 138 nM
- TGI (UACC-257 melanoma): 288 nM
- GI50 (MCF7 breast): 31.1 nM
- TGI (MCF7 breast): 12000 nM
- GI50 (ACHN renal): 156 nM

Source: PubChem BioAssay (NCI)
